Measured values taken from paper PMC7281419, “New Conjugates of Polyhydroxysteroids with Long-Chain Fatty Acids from the Deep-Water Far Eastern Starfish Ceramaster patagonicus and Their Anticancer Activity” (Marine Drugs, 2020).
Like-named read-outs stand apart in the source and are kept apart here.

Tests used:
[1] = MTS cell viability assay (cytotoxic / cytostatic activity); type: cell-based, mouse; conditions: mouse, JB6 Cl41 cells (normal epidermal), 100 µM, 24 h incubation, read-out: suppression of cell viability
Procedure: (§1) At the first stage of biological activity evaluation, the cytotoxicity of compounds 1–4 against mouse normal epidermal JB6 Cl41 cells, human breast cancer MDA-MB-231 cells, and colorectal carcinoma HCT 116 cells was determined by MTS assay, which is based on the cleavage of (3-(4,5-dimethylthiazol-2-yl)-5-(3-carboxymethoxyphenyl)-2-(4-sulfophenyl)-2H-tetrazolium) (MTS reagent) into a formazan product soluble in tissue culture medium.
(§2) That is why the cytostatic activity of compounds 1–4 was determined against JB6 Cl41, MDA-MB-231, and HCT 116 cell lines for 24, 48, and 72 h. […] The cytostatic effect of 2 was more prominent in colorectal carcinoma HCT 116 cells.
(§3) Figure 3 The cytostatic activity of compounds 1–4 against normal epidermal JB6 Cl41 cells, breast cancer MDA-MB-231 cells, and colorectal carcinoma HCT 116 cells. (A) JB6 Cl41, (B) MDA-MB-231, or (C) HCT 116 cells were treated with compounds 1–4 at concentrations of 1–100 µM for 24, 48, and 72 h. Cell viability was estimated using the MTS assay. Data are represented as the mean ± SD as determined from triplicate experiments.
(§4) To determine the cytotoxicity of compounds 1–4, JB6 Cl41, MDA-MB-231, and HCT 116 cells (1.0 × 10^4) were seeded in 200 µL of complete MEM/5% FBS, DMEM/10% FBS, and McCoy’s 5A/10% FBS medium, respectively, and incubated for 24 h at 37 °C in 5% CO2 incubator. The attached cells were incubated with fresh medium containing various concentrations of 1–4 (0–100 µM) or equivalent volume of DMSO (control) for additional 24 h. Subsequently, the cells were incubated with 15 µL MTS reagent for 3 h, and the absorbance of each well was measured at 490/630 nm using Power Wave XS microplate reader (BioTek, Winooski, VT, USA). All experimental conditions were assessed in triplicate.
(§5) To determine the effect of compounds 1–4 on cell proliferation, the tested cell lines (8 × 10^3 cells/200 µL) were treated with tested compounds at concentrations of 1, 10, 50, and 100 µM or equivalent volume of DMSO (control) and incubated for additional 24, 48, and 72 h at 37 °C in 5% CO2. MTS reagent (20 µL) was added to each well, and the cells were incubated for additional 3 h in 5% CO2 incubator. Absorbance was measured at 490/630 nm by microplate reader. All experimental conditions were assessed in triplicate.

JB6 Cl41 cells = test: as above; type: cell-based, mouse; conditions: Mus musculus, 72 h incubation, read-out: concentration that caused 50% inhibition of growth (IC50)
Procedure: as §1, §2, §3, §4, §5

[2] = as above; type: cell-based, human; conditions: human, 100 µM, 24 h incubation, read-out: suppression of cell viability
Procedure: as §1, §2, §3, §4, §5

HCT 116 cells [3] = test: as above; type: cell-based, human; conditions: for IC50: Homo sapiens, 72 h incubation, read-out: concentration that caused 50% inhibition of growth (IC50)
Procedure: as §1, §2, §3, §4, §5

MDA-MB-231 cells [4] = test: as above; type: cell-based, human; conditions: for IC50: Homo sapiens, 72 h incubation, read-out: concentration that caused 50% inhibition of growth (IC50)
Procedure: as §1, §2, §3, §4, §5

HCT 116 cells [5] = test: Soft agar colony formation assay; type: cell-based; conditions: Homo sapiens, 336 h, 14 days
Procedure: (§6) The formation of colonies is one of the most stringent characteristics for malignant transformation in cells. In the present study the soft agar assay was used to investigate the effect of compounds 1–4 on capability of cancer cells to form colonies.
(§7) Figure 4 The effect of compounds 1–4 on colony formation in human cancer cells. MDA-MB-231 (A) or HCT 116 cells (B) (2.4 × 10^4) were treated with or without investigated compounds (20 µM) and applied onto 0.3% Basal Medium Eagle (BME) agar containing 10% FBS, 2 mM L-glutamine, and 25 µg/mL gentamicin. After 14 days of incubation, the number of colonies was evaluated under a microscope with the aid of the ImageJ software program. Results are expressed as the mean ± standard deviation (SD). The asterisks (** p < 0.01, *** p < 0.001) indicate a significant decrease in colony number of cancer cells treated by compounds compared with control.
(§8) To estimate the effects of 1–4 on colony formation (phenotype expression), MDA-MB-231 and HCT 116 cells (2.4 × 10^4 cells/200 µL) were treated equivalent volume of DMSO (control) or with compounds 1–4 (20 µM) in 1 mL of 0.3% Basal Medium Eagle (BME) agar containing 10% FBS, 2 mM L-glutamine, and 25 µg/mL gentamicin. The cultures were maintained in a 37 °C, 5% CO2 incubator for 14 days, and the cell colonies were scored using a Motic AE 20 microscope (XiangAn, Xiamen, China) and ImageJ software bundled with 64-bit Java 1.8.0_112 (NIH, Bethesda, MD, USA).

MDA-MB-231 cells [6] = test: Soft agar colony formation assay; type: cell-based; conditions: Homo sapiens, 336 h, 14 days
Procedure: as §6, §7, §8

HCT 116 cells [7] = test: Wound healing (cell migration) assay; type: cell-based, human; conditions: 20 µM, 48 h
Text: (§9) The metastasis process is proven to be the leading cause of cancer-related death. Metastasis is a multistep process that includes migration and invasion of cancer cells, hallmarks of malignancy. Therefore, we investigated the ability of compounds 1–4 to inhibit the migration of breast cancer MDA-MB-231 cells and colorectal carcinoma HCT 116 cells with high metastatic potential. […] Compounds 1, 3, and 4 prevented HCT 116 cell migration by 36%, 30%, and 24%, respectively (Figure 5). […]
(§10) Figure 5 The effect of compounds 1–4 on migration of human cancer cells. MDA-MB-231 (A,B) and HCT 116 (C,D) cells migration distance was estimated by measuring the width of the wound and expressed as a percentage of each control for the mean of wound closure area. All experiments were repeated at least three times in each group (n = 18 for control and each compound, n—quantity of photos). The magnification of representative photos is ×10. Results are expressed as the mean ± standard deviation (SD). The asterisks (* p < 0.05, ** p < 0.01, *** p < 0.001) indicate a significant decrease in migration of cells treated with compounds compared with the control.
(§11) MDA-MB-231 and HCT 116 cells (3 × 10^5 cells/mL) were seeded into six-well plates and grown to 80% confluence for 24 h. After removing the culture medium, the cells’ monolayer was scraped with a 200 µL sterile pipette tip to create a straight scratch. Then, MDA-MB-231 and HCT 116 cells were treated with equivalent volume of DMSO (control) or 1–4 at concentration of 20 µM and incubated for 48 h. All experiments were conducted in triplicate for each group. For the image analysis, cell migration into the wound area was photographed at the stages of 0 and 48 h using a Motic AE 20 microscope and ImageJ software. The cell migration distance was estimated by measuring the width of the wound and expressed as a percentage of each control for the mean wound closure area.

MDA-MB-231 cells [8] = test: Wound healing (cell migration) assay; type: cell-based, human; conditions: 20 µM, 48 h
Text: as §9, §10, §11

[9] = tested on: herpes simplex virus type 1 (HSV-1); set-up: method as in PMID 20523000; conditions: in vitro; cited from earlier work
[10] = tested on: human liver carcinoma HepG2 cells; set-up: method as in PMID 20523000; conditions: in vitro; cited from earlier work
human lung cancer A549 = tested on: human lung cancer A549; set-up: method as in PMID 15104487; conditions: cited from earlier work
melanoma SK-MEL-2 = tested on: melanoma SK-MEL-2; set-up: method as in PMID 15104487; conditions: SK-MEL-2 cells; cited from earlier work
ovarian cancer SK-OV-3 = tested on: ovarian cancer SK-OV-3; set-up: method as in PMID 15104487; conditions: SK-OV-3 cells; cited from earlier work
CNS cancer XF498 = tested on: CNS cancer XF498; set-up: method as in PMID 15104487; conditions: cited from earlier work
colon cancer HCT15 = tested on: colon cancer HCT15; set-up: method as in PMID 15104487; conditions: cited from earlier work
[11] = HCT 116 cells (colorectal carcinoma)
[12] = MDA-MB-231 cells (breast cancer)

`CCCCCCC=CCCCCCCCCCC(=O)OCC(C)CCCC(C)C1C(O)C(O)C2C3CC(O)C4CC(O)CCC4(C)C3CCC12C` [Compound 2, (25S)-5α-cholestane-3β,6β,15α,16β-tetraol-26-yl 11′Z-octadecenoate] gave a cytotoxicity at 24 h, 100 µM [1] of less than 15%, an IC50 (JB6 Cl41 cells) of 40 µM and a cytotoxicity at 24 h, 100 µM [2, 11] of less than 15%. It also gave a cytotoxicity at 24 h, 100 µM [2, 12] of less than 15%, an IC50 (HCT 116 cells [3]) of 31 µM and an IC50 (MDA-MB-231 cells [4]) of 33 µM. For the same compound, the inhibition at 20 µM (HCT 116 cells [5]) was 27%, the inhibition at 20 µM (MDA-MB-231 cells [6]) was 26% and the “prevention of cell migration” value (HCT 116 cells [7]) was 73%. The “prevention of cell migration compared to control” value (MDA-MB-231 cells [8]) was 50%.

In the case of `CCCCC/C=C\CCCCCCCCCCCCC(=O)OC[C@@H](C)CCC[C@@H](C)[C@H]1[C@@H](O)[C@H](O)[C@@H]2[C@]1(C)CC[C@@H]1[C@@]3(C)CC[C@H](O)C[C@@H]3[C@@H](O)[C@@H](O)[C@]12O` [(25S)-5α-cholestane-3β,6α,7α,8,15α,16β-hexaol-26-yl 14′Z-eicosenoate], the “inhibitory activity against HSV-1” value [9] is listed as “did not possess inhibitory activity” and the “inhibitory activity against HepG2 cells” value [10] is listed as “did not possess inhibitory activity”.

In the case of `CCCCCCCCCCCCC=CCCCCCC(=O)OCC(C)CCCC(C)C1C(O)C(O)C2C3CC(O)C4CC(O)CCC4(C)C3CCC12C` [Compound 4, (25S)-5α-cholestane-3β,6β,15α,16β-tetraol-26-yl 7′Z-eicosenoate], the cytotoxicity at 24 h, 100 µM [1] is reported as less than 15%, the cytotoxicity at 24 h, 100 µM [2, 11] is reported as less than 15% and the cytotoxicity at 24 h, 100 µM [2, 12] is reported as less than 15%. For the same compound, the “toxicity against cell line” value (HCT 116 cells [3]; three days of treatment) was “non-toxic”, the “toxicity against cell line” value (MDA-MB-231 cells [4]; three days of treatment) was “non-toxic” and the inhibition at 20 µM (HCT 116 cells [5]) was 16%. The inhibition at 20 µM (MDA-MB-231 cells [6]) was 10%, the “prevention of cell migration” value (HCT 116 cells [7]) was 24% and the “inhibitory activity against cell migration (in words)” value (MDA-MB-231 cells [8]) was “moderate inhibitory activity”.

Work on `CCCCCCC=CCCCCC=CCCCC(=O)OCC(C)CCCC(C)C1C(O)C(O)C2C3CC(O)C4CC(O)CCC4(C)C3CCC12C` [Compound 1, (25S)-5α-cholestane-3β,6β,15α,16β-tetraol-26-yl 5′Z,11′Z-octadecadienoate] yielded a cytotoxicity at 24 h, 100 µM [1] of less than 15%, an IC50 (JB6 Cl41 cells) of 81 µM and a cytotoxicity at 24 h, 100 µM [2, 11] of less than 15%. For the same compound, the cytotoxicity at 24 h, 100 µM [2, 12] was less than 15%, the IC50 (HCT 116 cells [3]) was 73 µM and the IC50 (MDA-MB-231 cells [4]) was 74 µM. The inhibition at 20 µM (HCT 116 cells [5]) was 20%, the inhibition at 20 µM (MDA-MB-231 cells [6]) was 17% and the “prevention of cell migration” value (HCT 116 cells [7]) was 36%. The “prevention of cell migration compared to control” value (MDA-MB-231 cells [8]) was 42%.

With `CCCCCCCCC=CCCCCC=CCCCC(=O)OCC(C)CCCC(C)C1C(O)C(O)C2C3CC(O)C4CC(O)CCC4(C)C3CCC12C` [Compound 3, (25S)-5α-cholestane-3β,6β,15α,16β-tetraol-26-yl 5′Z,11′Z-eicosadienoate] the cytotoxicity at 24 h, 100 µM [1] was less than 15%, the IC50 (JB6 Cl41 cells) was 79 µM and the cytotoxicity at 24 h, 100 µM [2, 11] was less than 15%. For the same compound, the cytotoxicity at 24 h, 100 µM [2, 12] was less than 15%, the IC50 (HCT 116 cells [3]) was 71 µM and the IC50 (MDA-MB-231 cells [4]) was 73 µM. The inhibition at 20 µM (HCT 116 cells [5]) was 18%, the inhibition at 20 µM (MDA-MB-231 cells [6]) was 15% and the “prevention of cell migration” value (HCT 116 cells [7]) was 30%. The “inhibitory activity against cell migration (in words)” value (MDA-MB-231 cells [8]) was “moderate inhibitory activity”.

For `CC(C)[C@H](/C=C/[C@@H](C)[C@H]1C[C@@H](O)[C@H]2[C@@H]3C[C@H](O)[C@H]4C[C@@H](O)CC[C@]4(C)[C@H]3CC[C@@]21C)CO` [certonardosterol D2], the “effective dose that inhibited viability of 50% cells (ED50)” value (human lung cancer A549) is given as 0.15 µg/mL, the “effective dose that inhibited viability of 50% cells (ED50)” value (melanoma SK-MEL-2) is given as 0.09 µg/mL and the “effective dose that inhibited viability of 50% cells (ED50)” value (ovarian cancer SK-OV-3) is given as 0.08 µg/mL. For the same compound, the “effective dose that inhibited viability of 50% cells (ED50)” value (CNS cancer XF498) was 0.07 µg/mL and the “effective dose that inhibited viability of 50% cells (ED50)” value (colon cancer HCT15) was 0.01 µg/mL.
